One may read the EC50 as the concentration giving half of the maximal effect. One may read the IC50 as the concentration that inhibits the measured activity by half.

Consider five compounds from publication PMC9785441, “A Broad Spectrum Antiparasitic Activity of Organotin (IV) Derivatives and Its Untargeted Proteomic Profiling Using Leishmania donovani” (Pathogens, 2022).

Assay [1] has as its system T. b. brucei Lister 427 bloodstream forms. The assay can be described thus: T. brucei bloodstream form viability assay (SYBR Green). In kind it is cell-based, Trypanosoma brucei. Conditions: Trypanosoma brucei; bloodstream forms, 72 h. The procedure: Bloodstream forms of T. b. brucei Lister 427 were cultured in complete HMI-9 medium in T25 suspension culture flasks (Thermo Scientific, Cat. 12-566-84) and maintained at 37 °C and 5% CO2. Trypanosomes were kept in log-phase growth and passaged every 48 h. […] Pentamidine were used as a positive control for T. brucei assay. Compounds were diluted with fresh HMI-9 medium (99 µL/well). Parasites in log-phase were suspended at 2 × 10^5 parasites/mL in HMI-9 medium and then added to each well (100 µL) to give 2 × 10^4 trypanosomes/well. Assay plates were incubated at 37 °C and 5% CO2 for 72 h. Parasite lysate was obtained by addition of 50 µL/well of lysis solution (0.012% saponin, 0.12% Triton X-100, 7.5 mM ETDA, 30 mM Tris, pH 7.5) containing 0.3 µL/mL SYBR Green I (10,000× in DMSO; Invitrogen, Carlsbad, CA, USA). Assay plates were incubated in the dark for 1 h at room temperature. Fluorescence was measured at 485 nm excitation and 535 nm emission wavelengths using an EnVision multilabel plate reader (PerkinElmer, Waltham, MA, USA). In each assay plate, parasite viability was normalized relative to positive (pentamidine) and negative (0.5% DMSO) controls in each assay plate. Assays were performed in biological and technical duplicates, and dose–response and EC50 data were generated with GraphPad Prism 9 using a sigmoidal four parameter logistic curve.

The subject of assay [2] is E. histolytica HM1:IMSS trophozoites. The assay can be described thus: E. histolytica trophozoite viability assay (CellTiter-Glo). The assay is classed as cell-based, Entamoeba histolytica. The settings on record: Entamoeba histolytica, 48 h. How it is done:
Trophozoites of E. histolytica HM1:IMSS were maintained in vitro as described in TYI-S-33 medium supplemented with penicillin (100 U/mL) and streptomycin (100 µg/mL). Test compounds were serially diluted and transferred to a white solid bottomed 96-well tissue culture plate (E&K Scientific, Swedesboro, NJ, USA) followed by addition of 5000 E. histolytica trophozoites per well for a final volume of 100 µL TYI-S-33 medium and a final concentration of compounds ranging from 50 to 0.39 µM. Metronidazole were used as positive control and assay plates were incubated for 48 h at 37 °C. The plates maintained kept anaerobically using the GasPak EZ Anaerobic Gas Generating Pouch System (VWR). Parasite viability was measured in triplicate using the CellTiter-Glo luminescence kit (Promega G9243) in an Envision plate reader (Perkin Elmer, Waltham, MA, USA). EC50 values were obtained using GraphPad Prism 9 Software.

Assay [3] deals with G. lamblia (WB strain) trophozoites. The assay can be described thus: G. lamblia trophozoite viability assay (CellTiter-Glo). The assay is classed as cell-based, Giardia lamblia. Conditions: Giardia duodenalis, 48 h. How it is done: Trophozoites of G. lamblia (WB strain) were maintained in vitro as described in TYI-S-33 medium supplemented with penicillin (100 U/mL) and streptomycin (100 µg/mL). Cells were harvested during the logarithmic phase of the growth for antiparasitic assessment. Test compounds were serially diluted and transferred to a white solid bottomed 96-well tissue culture plate (E&K Scientific, Swedesboro, NJ, USA) followed by addition of 5000 G. lamblia trophozoites for a final volume of 100 µL of TYI-S-33 medium and a final concentration of compounds ranging from 50.0 to 0.39 µM. Metronidazole was used as a positive control and assay plates were incubated for 48 h at 37 °C in the GasPak EZ Anaerobic Gas Generating Pouch System (VWR). Parasite viability was measured in triplicate using the CellTiter-Glo luminescence kit in an Envision plate reader. EC50 values were obtained using the GraphPad Prism 9 Software.
(In general: In ATP-based viability assays light output follows the ATP content of the culture.)

For assay [4], the system named is L. donovani promastigotes. Briefly: L. donovani promastigote viability assay (resazurin). In kind it is cell-based, Leishmania donovani. Conditions: Leishmania donovani; Figure S1 dose response curves, RFU; read-out: IC50 against the promastigotes of L. donovani. The procedure:
Promastigotes of L. donovani from late log phase culture were diluted to 2.0 × 10^6/mL in M-199 containing 10% FBS, 25 mM HEPES (Gibco 15630-080), 100 µM adenine, 12 mM NaHCO3, 10 µM folic acid, 1% penicillin/streptomycin (Gibco 15140-122) as described previously. Compounds and controls were transferred from compound plates to 384 well assay plates with the use of an acoustic transfer system (ATS, EDC Biosystems, Fremont, CA, USA). Promastigotes were incubated with compounds at 29 °C for 48 h. To measure parasite viability, resazurin sodium salt (7-hydroxy-3H-phenoxazin3-one 10-oxide) was dissolved in PBS and added to each well at a volume of 5 µL (final concentration of 44 µM). After incubating for 4 h at room temperature, fluorescence (ex 571 nm/em 584 nm) was recorded with an Envision (Perkin Elmer, Waltham, MA, USA) microplate fluorescence/luminescence reader. […] For positive and negative control amphotericin B and 0.5% DMSO was used, respectively. Dose response and EC50 analyses were obtained using GraphPad Prism 9 Software (Graph Pad Software Inc., San Diego, CA, USA).
Background: The colour change of resazurin is a common sign of viable cells or microbes.

Assay [5] concerns N. fowleri (KUL strain) trophozoites. The assay can be described thus: N. fowleri trophozoite viability assay (CellTiter-Glo). In kind it is cell-based, Naegleria fowleri. Conditions: Naegleria fowleri, 48 h. How it is done:
N. fowleri (KUL strain) was cultured in Nelson’s medium supplemented with 10% FBS and kept at 37 °C. For all experiments, trophozoites were harvested during the logarithmic phase of growth. Test compounds were serially diluted and transferred to a white solid bottomed 96-well tissue culture plate (E&K Scientific, Swedesboro, NJ, USA) followed by addition of 10,000 N. fowleri trophozoites in Nelson’s medium in a final volume of 100 µL and a final concentration of compounds ranging from 50 to 0.39 µM. Amphotericin B was used as positive control and assay plates were incubated for 48 h at 37 °C. Parasite viability was measured as described for E. histolytica and G. lamblia. EC50 values were obtained using the GraphPad Prism 9 Software.

A further assay relates to S. mansoni, adult worm. Briefly: S. mansoni adult worm ex vivo phenotypic screen (severity score). In kind it is cell-based, Schistosoma mansoni. Conditions: after 24 h; tested at 10, 5, 2.5 and 1.25 µM; EC50. From the text: The Naval Medical Research Institute (NMRI) isolate of S. mansoni was used. The parasite was cycled between Biomphalaria glabrata snails and male Golden Syrian hamsters (infected at 4–6 weeks of age) as intermediate and definitive hosts, respectively. Hamsters were infected and maintained in accordance with protocols approved by the Institutional Animal Care and Use Committee (IACUC) at the University of California San Diego. The acquisition, preparation and in vitro maintenance of S. mansoni have been described. Briefly, adult worms were harvested from hamsters 42 days post-infection in RPMI or DMEM, and washed five times prior to maintenance overnight at 37 °C and 5% CO2 in Basch medium containing 4% heat-inactivated FBS, 100 µg/mL streptomycin and 100 U/mL penicillin.
Ex vivo screens with adults employed 24-well flat-bottomed plates and approximately 5 males and 2–3 females/well. The complex and often dynamic phenotypic responses that the schistosome parasite is capable of were observed using a Zeiss Axiovert A1 inverted microscope at 24 h. Observations were classified using a constrained nomenclature that involves simple “descriptors” to convey changes in shape, motility and appearance, and the inability of the male worm to adhere to the bottom of the well, compared to DMSO controls. Each descriptor was given a value of 1 and these were added up to yield a “severity score” with a maximum of 4. Evidence of degeneracy or death was awarded a value of 4 as was damage to the tegument (parasite’s surface) on the understanding this would compromise survival in vivo. […] Data were averaged across two experiments for each compound concentration tested.

Assay [6] deals with T. cruzi (infecting C2C12). Briefly: T. cruzi intracellular amastigote assay in C2C12 cells (high content imaging). In kind it is cell-based, Trypanosoma cruzi. The settings on record: Trypanosoma cruzi, C2C12, 72 h, read-out: EC50 T. cruzi (infecting C2C12). The procedure: Mouse C2C12 myoblasts (ATCC CRL-1772) were cultivated in RPMI 1640 medium supplemented with 5% FBS and kept at 37 °C and 5% CO2. T. cruzi CAI-72 trypomastigotes were obtained from the supernatant of C2C12 cells infected four to seven days previously. For the assay, 500 C2C12 cells were mixed with 7500 T. cruzi parasites and seeded into 384-well plates at a 50 µL final volume. Test compounds and reference drugs (Benznidazole and K11777) were pre-spotted into the 384 well black bottom plates prior to the addition of cells and parasites with final assay concentration of 20 µM to 0.02 µM. The plates were incubated at 37 °C^, 5% CO2 for 72 h. Cultures were then fixed with 4% formaldehyde and 0.5 µg/mL DAPI (diamidino-2-phenylindole) was added for staining nucleic acids. Plates were kept protected from light for 1 h and then imaged in an ImageXpress Micro XLS automated high content imager (Molecular Devices, San Jose, CA, USA). Imaging and data analysis were performed as described for L. donovani amastigotes on biological triplicates.

`N=C(N)c1ccc(OCCCCCOc2ccc(C(=N)N)cc2)cc1` [Pentamidine, pentamidine, reference compound] showed an EC50 in assay [1] of 10 nM.
For `Cc1ncc([N+](=O)[O-])n1CCO` [Metronidazole, metronidazole, reference compound], the concentration for a half-maximal effect (EC50) in assay [2] turned out to be 4400 nM; in assay [3] it was 5700 nM.
For `C[C@@H]1[C@H](O)[C@@H](C)/C=C/C=C/C=C/C=C/C=C/C=C/C=C/[C@H](O[C@@H]2O[C@H](C)[C@@H](O)[C@H](N)[C@@H]2O)C[C@@H]2O[C@](O)(C[C@@H](O)C[C@@H](O)[C@H](O)CC[C@@H](O)C[C@@H](O)CC(=O)O[C@H]1C)C[C@H](O)[C@H]2C(=O)O` [AmpB, amphotericin B, reference compound], the 50% inhibitory concentration (IC50) in assay [4] is 740 nM. The same compound yielded an EC50 in assay [5] of 90 nM.
For the compound `O=C(C1CCCCC1)N1CC(=O)N2CCc3ccccc3C2C1` (stereo not shown) [Praziquantel, praziquantel, reference compound], the “S. mansoni, adult worm: least concentration at which a severity score of 4 was recorded” value in the assay on S. mansoni, adult worm stood at 1.25 µM.
`O=C(Cn1ccnc1[N+](=O)[O-])NCc1ccccc1` [Benznidazole, benznidazole, reference compound]: the EC50 in assay [6] stood at 4710 nM.
